{"source": "ChEMBL document CHEMBL1201862", "about": "“PubChem BioAssay data set” (2004)", "experiment_in_all_cases": "NCI-60 cell line screen, 48 h", "key": {"[1]": {"system": "UACC-62"}, "[2]": {"system": "MDA-N"}, "[3]": {"system": "NCI/ADR-RES"}, "[4]": {"system": "UACC-257"}, "[5]": {"system": "MCF7"}, "[6]": {"system": "HCT-116"}, "[7]": {"system": "RXF 393"}, "[8]": {"system": "MOLT-4"}, "[9]": {"system": "Malme-3M"}, "[10]": {"system": "SK-MEL-28"}, "[11]": {"system": "SW-620"}, "[12]": {"system": "HT-29"}, "[13]": {"system": "HOP-62"}, "[14]": {"system": "SN12C"}, "[15]": {"system": "OVCAR-3"}, "[16]": {"system": "UO-31"}, "[17]": {"system": "A498"}, "[18]": {"system": "MDA-MB-231"}}, "note": "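Where inhibition never reached the appropriate level, the endpoint shown equals the highest concentration tested. Otherwise, values were interpolated linearly from a five-concentration, 48-hour dose response in 96-well plates. Abbreviation: GI50, concentration required for 50% inhibition of growth.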 Calls of active or inactive are those of the source. No stated cut-off is given here; in the data, active = GI50 up to about 1.1 µM and inactive = higher.", "data": [{"molecule": "CC(=O)Oc1ccccc1C(=O)O", "note": "[ASPIRIN]", "values": [{"measurement": "GI50", "setting": "[1]", "result": "> 100 µM (inactive)"}, {"measurement": "GI50", "setting": "[2]", "result": "> 100 µM (inactive)"}, {"measurement": "GI50", "setting": "[3]", "result": "> 100 µM (inactive)"}, {"measurement": "GI50", "setting": "[4]", "result": "> 100 µM (inactive)"}, {"measurement": "GI50", "setting": "[5]", "result": "> 100 µM (inactive)"}, {"measurement": "GI50", "setting": "[6]", "result": "> 100 µM (inactive)"}, {"measurement": "GI50", "setting": "[7]", "result": "> 100 µM (inactive)"}, {"measurement": "GI50", "setting": "[8]", "result": "> 100 µM (inactive)"}, {"measurement": "GI50", "setting": "[9]", "result": "> 100 µM (inactive)"}, {"measurement": "GI50", "setting": "[10]", "result": "> 100 µM (inactive)"}, {"measurement": "GI50", "setting": "[11]", "result": "> 100 µM (inactive)"}, {"measurement": "GI50", "setting": "[12]", "result": "> 100 µM (inactive)"}, {"measurement": "GI50", "setting": "[13]", "result": "> 100 µM (inactive)"}, {"measurement": "GI50", "setting": "[14]", "result": "> 100 µM (inactive)"}, {"measurement": "GI50", "setting": "[15]", "result": "> 100 µM (inactive)"}, {"measurement": "GI50", "setting": "[16]", "result": "> 100 µM (inactive)"}]}, {"molecule": "CCOC(=O)/C(=C\\NC(C)(C)C)c1nc2ccccc2[nH]1", "values": [{"measurement": "GI50", "setting": "[1]", "result": "16.3 µM (inactive)"}, {"measurement": "GI50", "setting": "[2]", "result": "22.9 µM (inactive)"}, {"measurement": "GI50", "setting": "[3]", "result": "32 µM (inactive)"}, {"measurement": "GI50", "setting": "[4]", "result": "18.5 µM (inactive)"}, {"measurement": "GI50", "setting": "[5]", "result": "18.6 µM (inactive)"}, {"measurement": "GI50", "setting": "[6]", "result": "29.5 µM (inactive)"}, {"measurement": "GI50", "setting": "[7]", "result": "23.5 µM (inactive)"}, {"measurement": "GI50", "setting": "[9]", "result": "20.6 µM (inactive)"}, {"measurement": "GI50", "setting": "[10]", "result": "16.4 µM (inactive)"}, {"measurement": "GI50", "setting": "[11]", "result": "25.3 µM (inactive)"}, {"measurement": "GI50", "setting": "[12]", "result": "17.9 µM (inactive)"}, {"measurement": "GI50", "setting": "[13]", "result": "22.4 µM (inactive)"}, {"measurement": "GI50", "setting": "[14]", "result": "28.3 µM (inactive)"}, {"measurement": "GI50", "setting": "[15]", "result": "17.5 µM (inactive)"}, {"measurement": "GI50", "setting": "[16]", "result": "0.466 µM (active)"}, {"measurement": "GI50", "setting": "[17]", "result": "25.1 µM (inactive)"}]}, {"molecule": "Cc1ccc(O)c(C(c2cc(C)ccc2O)c2cc([N+](=O)[O-])ccc2O)c1", "values": [{"measurement": "GI50", "setting": "[1]", "result": "15.9 µM (inactive)"}, {"measurement": "GI50", "setting": "[3]", "result": "21.1 µM (inactive)"}, {"measurement": "GI50", "setting": "[4]", "result": "16.6 µM (inactive)"}, {"measurement": "GI50", "setting": "[5]", "result": "14.5 µM (inactive)"}, {"measurement": "GI50", "setting": "[6]", "result": "24.6 µM (inactive)"}, {"measurement": "GI50", "setting": "[7]", "result": "17.8 µM (inactive)"}, {"measurement": "GI50", "setting": "[8]", "result": "6.12 µM (inactive)"}, {"measurement": "GI50", "setting": "[18]", "result": "0.0604 µM (active)"}, {"measurement": "GI50", "setting": "[10]", "result": "5.73 µM (inactive)"}, {"measurement": "GI50", "setting": "[11]", "result": "24.3 µM (inactive)"}, {"measurement": "GI50", "setting": "[12]", "result": "15 µM (inactive)"}, {"measurement": "GI50", "setting": "[13]", "result": "13.4 µM (inactive)"}, {"measurement": "GI50", "setting": "[14]", "result": "14.7 µM (inactive)"}, {"measurement": "GI50", "setting": "[15]", "result": "12.4 µM (inactive)"}, {"measurement": "GI50", "setting": "[16]", "result": "7.74 µM (inactive)"}, {"measurement": "GI50", "setting": "[17]", "result": "17.2 µM (inactive)"}]}, {"molecule": "CC(=O)O[C@H]1[C@@H](OC2CCCC2(c2ccccc2)c2ccccc2)O[N+]([O-])=C[C@@]12COCc1cc3c(cc12)OCO3", "note": "(some centres undefined)", "values": [{"measurement": "GI50", "setting": "[1]", "result": "8.39 µM (inactive)"}, {"measurement": "GI50", "setting": "[3]", "result": "3.52 µM (inactive)"}, {"measurement": "GI50", "setting": "[4]", "result": "18.2 µM (inactive)"}, {"measurement": "GI50", "setting": "[5]", "result": "6.38 µM (inactive)"}, {"measurement": "GI50", "setting": "[6]", "result": "> 21.2 µM (inactive)"}, {"measurement": "GI50", "setting": "[7]", "result": "5.74 µM (inactive)"}, {"measurement": "GI50", "setting": "[8]", "result": "2.52 µM (inactive)"}, {"measurement": "GI50", "setting": "[18]", "result": "6.12 µM (inactive)"}, {"measurement": "GI50", "setting": "[10]", "result": "6.78 µM (inactive)"}, {"measurement": "GI50", "setting": "[11]", "result": "7.03 µM (inactive)"}, {"measurement": "GI50", "setting": "[12]", "result": "2.77 µM (inactive)"}, {"measurement": "GI50", "setting": "[13]", "result": "2.99 µM (inactive)"}, {"measurement": "GI50", "setting": "[14]", "result": "3.78 µM (inactive)"}, {"measurement": "GI50", "setting": "[15]", "result": "1.89 µM (inactive)"}, {"measurement": "GI50", "setting": "[16]", "result": "4.42 µM (inactive)"}, {"measurement": "GI50", "setting": "[17]", "result": "1.99 µM (inactive)"}]}, {"molecule": "c1cc2c(cc1NC1=NCCO1)CCC2", "values": [{"measurement": "GI50", "setting": "[1]", "result": "> 10 µM (inactive)"}, {"measurement": "GI50", "setting": "[2]", "result": "3.24 µM (inactive)"}, {"measurement": "GI50", "setting": "[5]", "result": "> 10 µM (inactive)"}, {"measurement": "GI50", "setting": "[6]", "result": "4.49 µM (inactive)"}, {"measurement": "GI50", "setting": "[7]", "result": "> 10 µM (inactive)"}, {"measurement": "GI50", "setting": "[8]", "result": "> 10 µM (inactive)"}, {"measurement": "GI50", "setting": "[9]", "result": "> 10 µM (inactive)"}, {"measurement": "GI50", "setting": "[10]", "result": "> 10 µM (inactive)"}, {"measurement": "GI50", "setting": "[11]", "result": "8.26 µM (inactive)"}, {"measurement": "GI50", "setting": "[12]", "result": "> 10 µM (inactive)"}, {"measurement": "GI50", "setting": "[13]", "result": "> 10 µM (inactive)"}, {"measurement": "GI50", "setting": "[14]", "result": "> 10 µM (inactive)"}, {"measurement": "GI50", "setting": "[15]", "result": "> 10 µM (inactive)"}]}, {"molecule": "O=C(c1ccccc1)N1CCC(Nc2nccs2)O1", "note": "(centres undefined)", "values": [{"measurement": "GI50", "setting": "[3]", "result": "> 10 µM (inactive)"}, {"measurement": "GI50", "setting": "[4]", "result": "> 10 µM (inactive)"}, {"measurement": "GI50", "setting": "[5]", "result": "> 10 µM (inactive)"}, {"measurement": "GI50", "setting": "[6]", "result": "> 10 µM (inactive)"}, {"measurement": "GI50", "setting": "[7]", "result": "> 10 µM (inactive)"}, {"measurement": "GI50", "setting": "[8]", "result": "> 10 µM (inactive)"}, {"measurement": "GI50", "setting": "[9]", "result": "> 10 µM (inactive)"}, {"measurement": "GI50", "setting": "[18]", "result": "> 10 µM (inactive)"}, {"measurement": "GI50", "setting": "[10]", "result": "> 10 µM (inactive)"}, {"measurement": "GI50", "setting": "[11]", "result": "> 10 µM (inactive)"}, {"measurement": "GI50", "setting": "[12]", "result": "> 10 µM (inactive)"}, {"measurement": "GI50", "setting": "[13]", "result": "> 10 µM (inactive)"}, {"measurement": "GI50", "setting": "[14]", "result": "> 10 µM (inactive)"}, {"measurement": "GI50", "setting": "[15]", "result": "> 10 µM (inactive)"}, {"measurement": "GI50", "setting": "[16]", "result": "> 10 µM (inactive)"}]}, {"molecule": "Cn1c(CCC#N)nc2ccc(Br)cc2c1=O", "values": [{"measurement": "GI50", "setting": "[1]", "result": "> 100 µM (inactive)"}, {"measurement": "GI50", "setting": "[4]", "result": "> 100 µM (inactive)"}, {"measurement": "GI50", "setting": "[7]", "result": "> 100 µM (inactive)"}, {"measurement": "GI50", "setting": "[8]", "result": "> 100 µM (inactive)"}, {"measurement": "GI50", "setting": "[9]", "result": "> 100 µM (inactive)"}, {"measurement": "GI50", "setting": "[10]", "result": "> 100 µM (inactive)"}, {"measurement": "GI50", "setting": "[11]", "result": "> 100 µM (inactive)"}, {"measurement": "GI50", "setting": "[12]", "result": "> 100 µM (inactive)"}, {"measurement": "GI50", "setting": "[13]", "result": "> 100 µM (inactive)"}, {"measurement": "GI50", "setting": "[14]", "result": "> 100 µM (inactive)"}, {"measurement": "GI50", "setting": "[16]", "result": "> 100 µM (inactive)"}, {"measurement": "GI50", "setting": "[17]", "result": "> 100 µM (inactive)"}]}]}
